Source: BindingDB's records for doi:10.1016/j.ejmech.2020.112858 (University of Pisa, 2020)

Legend:
[1] = Competitive antagonist activity at human CB2R expressed in CHO cell membranes assessed as rightward shift of N-cycloheptyl-1,2-dihydro-5-bromo-1-(4-fluoro benzyl)-6-methyl-2-oxo-pyridine-3-carboxamide-induced GTPgammaS binding by measuring N-cycloheptyl-1,2-dihydro-5-bromo-1-(4-fluoro benzyl)-6-methyl-2-oxo-pyridine-3-carboxamide EC50 at 300
[2] = Competitive antagonist activity at human CB2R expressed in CHO cell membranes assessed as rightward shift of N-cycloheptyl-1,2-dihydro-5-bromo-1-(4-fluoro benzyl)-6-methyl-2-oxo-pyridine-3-carboxamide-induced GTPgammaS binding by measuring N-cycloheptyl-1,2-dihydro-5-bromo-1-(4-fluoro benzyl)-6-methyl-2-oxo-pyridine-3-carboxamide EC50 at 100
[3] = Non-competitive antagonist activity at human CB2R expressed in CHO cell membranes assessed as N-cycloheptyl-1,2-dihydro-1-(4-fluorobenzyl)-6-methyl-2-oxo-5-phenyl-pyridine-3-carboxamide EC50 at 100 nM preincubated with compound for 30 mins followed by GTPgammaS addition and measured after 90 mins by [35S]GTPgammaS assay (Rvb = 19.4 nM)
[4] = Non-competitive antagonist activity at human CB2R expressed in CHO cell membranes assessed as N-cycloheptyl-1,2-dihydro-1-(4-fluorobenzyl)-6-methyl-2-oxo-5-phenyl-pyridine-3-carboxamide EC50 at 300 nM preincubated with compound for 30 mins followed by GTPgammaS addition and measured after 90 mins by [35S]GTPgammaS assay (Rvb = 19.4 nM)
[5] = Non-competitive antagonist activity at human CB2R expressed in CHO cell membranes assessed as N-cycloheptyl-1,2-dihydro-1-(4-fluorobenzyl)-6-methyl-2-oxo-5-phenyl-pyridine-3-carboxamide EC50 at 1000 nM preincubated with compound for 30 mins followed by GTPgammaS addition and measured after 90 mins by [35S]GTPgammaS assay (Rvb = 19.4 nM)
[6] = Competitive antagonist activity at human CB2R expressed in CHO cell membranes assessed as rightward shift of N-cycloheptyl-1,2-dihydro-5-bromo-1-(4-fluoro benzyl)-6-methyl-2-oxo-pyridine-3-carboxamide-induced GTPgammaS binding by measuring N-cycloheptyl-1,2-dihydro-5-bromo-1-(4-fluoro benzyl)-6-methyl-2-oxo-pyridine-3-carboxamide EC50 at 1000

COc1ccc(-c2cc(C(=O)NC3CCCCCC3)c(=O)n(Cc3ccc(F)cc3)c2C)cc1
EC50 [1]: 192 nM
EC50 [2]: 81 nM
EC50 [3]: 102 nM
EC50 [4]: 62 nM
EC50 [5]: 103 nM
EC50 [6]: 711 nM
